Like-named read-outs stand apart in the source and are kept apart here. Where no end group is shown, it is not given here.
Assays:
Experiment in all cases: Direct-binding FRET assay
HLF = molecular target: T1, HLF (Homo sapiens, UniProt Q16534); details: read-out: Kd
T1 construct: made in house
T1 sequence (Q16534 225-288 limits assumed): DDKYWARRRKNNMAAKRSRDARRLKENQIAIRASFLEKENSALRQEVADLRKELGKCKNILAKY
Method: (§1) The direct binding assay was performed manually in 384-well plates and is similar to a previously described assay. Wells were filled with 20 μL of 1 mM TCEP-HCl. A 4 μM stock of acceptor protein was made fresh in 1 mM TCEP-HCl, and 20 μL was titrated in 2-fold dilutions over the wells. […] The direct-binding FRET data were fit as previously described. Briefly, the Kd of the designed peptide homodimer was experimentally determined and used with previously determined target homodimer Kd values to determine the heterodimer Kd. The homodimer Kd values used for the human bZIPs were from; experiments done by […] et al. used the same protein constructs for the human bZIP proteins, the same buffer conditions, and the same assay. The fitting used a system of ordinary differential equations to describe the concentrations of homo and heterodimers formed by the donor (D) and acceptor (A) as a function of the heterodimer Kd. MATLAB was used to simulate the binding experiment for different Kd values, and the value that gave the best agreement between simulation and experiment was assigned. A minimum 15% change in the donor fluorescence upon titrating the acceptor peptide from 0 to 1000 nM was required for a fit to be attempted. If this minimum was not met, the interaction was classified as “NS” for no signal change. […] These interactions were marked “AS” to indicate anomalous signal. We attributed this to interactions between the peptides, the dyes and the walls of the assay plates at low concentrations. These curves could not be fit, given their unusual shapes at low concentrations of acceptor. For such curves, we removed the first five points and re-fit the data. […] One example of this is increasing concentrations of acceptor causing an increase in donor fluorescence.

ATF5 = molecular target: T2, ATF5 (Homo sapiens, UniProt Q9Y2D1); details: mean or single, read-out: Kd
T2 construct: made in house
T2 sequence (Q9Y2D1 208-271 limits assumed): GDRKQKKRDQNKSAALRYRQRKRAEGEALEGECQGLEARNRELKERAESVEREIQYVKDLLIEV
Method: as §1

JUNB = molecular target: T3, JUNB (Homo sapiens, UniProt P17275); details: mean or single, read-out: Kd
T3 construct: made in house
T3 sequence (P17275 268-331 limits assumed): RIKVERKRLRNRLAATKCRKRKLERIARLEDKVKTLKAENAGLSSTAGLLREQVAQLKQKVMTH
Method: as §1

NFIL3 = molecular target: T4, NFIL3 (Homo sapiens, UniProt Q16649); details: read-out: Kd
T4 construct: made in house
T4 sequence (Q16649 73-136 limits assumed): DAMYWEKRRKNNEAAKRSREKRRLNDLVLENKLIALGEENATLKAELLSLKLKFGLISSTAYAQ
Method: as §1

CREB3 = molecular target: T5, CREB3 (Homo sapiens, UniProt O43889); details: mean or single, read-out: Kd
T5 construct: made in house
T5 sequence (O43889 150-213 limits assumed): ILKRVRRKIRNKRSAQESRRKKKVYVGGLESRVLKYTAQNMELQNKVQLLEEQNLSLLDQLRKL
Method: as §1

BACH1 = BACH1 (Homo sapiens, UniProt O14867); design: made in house; details: read-out: Kd
Method: as §1

BACH2 = BACH2 (Homo sapiens, UniProt Q9BYV9); design: made in house; details: read-out: Kd
Sequence of BACH2 (Q9BYV9 646-709 limits assumed): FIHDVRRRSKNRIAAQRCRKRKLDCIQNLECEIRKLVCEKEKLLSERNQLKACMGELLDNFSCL
Method: as §1

ATF6 = ATF6 (Homo sapiens, UniProt P18850); design: made in house; details: read-out: Kd
Sequence of ATF6 (P18850 306-369 limits assumed): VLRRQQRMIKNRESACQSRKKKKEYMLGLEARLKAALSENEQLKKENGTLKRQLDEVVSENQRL
Method: as §1

MAF = MAF (Homo sapiens, UniProt O75444); design: made in house; details: read-out: Kd
Sequence of MAF (O75444 288-351 limits assumed): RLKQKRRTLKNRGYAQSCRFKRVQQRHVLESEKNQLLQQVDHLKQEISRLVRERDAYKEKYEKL
Method: as §1

NFE2L1 = NFE2L1 (Homo sapiens, UniProt Q14494); design: made in house; details: read-out: Kd
Sequence of NFE2L1 (Q14494 654-717 limits assumed): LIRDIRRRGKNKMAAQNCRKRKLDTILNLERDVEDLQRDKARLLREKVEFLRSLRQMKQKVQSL
Method: as §1

MAFB = MAFB (Homo sapiens, UniProt Q9Y5Q3); design: made in house; details: read-out: Kd
Sequence of MAFB (Q9Y5Q3 238-301 limits assumed): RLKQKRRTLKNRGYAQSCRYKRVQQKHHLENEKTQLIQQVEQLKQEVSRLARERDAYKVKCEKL
Method: as §1

[1] = 4°C, C-terminal fluorescein design as donor, TAMRA target titrated
[2] = 4°C, C-terminal rhodamine design, mean or single
[3] = 4°C, N-terminal rhodamine design, mean or single
[4] = 23°C, C-terminal fluorescein design as donor, TAMRA target titrated
[5] = 23°C, C-terminal rhodamine design, mean or single
[6] = 23°C, N-terminal rhodamine design, mean or single
[7] = 37°C, C-terminal fluorescein design as donor, TAMRA target titrated
[8] = 37°C, C-terminal rhodamine design, mean or single
[9] = 37°C, N-terminal rhodamine design, mean or single
[10] = 4°C, C-terminal rhodamine design
[11] = 4°C, N-terminal rhodamine design
[12] = 23°C, C-terminal rhodamine design
[13] = 23°C, N-terminal rhodamine design
[14] = 37°C, C-terminal rhodamine design
[15] = 37°C, N-terminal rhodamine design

Measured: Kd

EREAQLENRVAHLKEKNQELKAQNLHLKEALSEAQNRNQELKNDA [XBP1-d1]
> 1000 nM: HLF; [1] | HLF; [2] | HLF; [3] | HLF; [4] | HLF; [5] | HLF; [6] | HLF; [7] | HLF; [8] | HLF; [9] | ATF5; [10] | ATF5; [11] | ATF5; [12] | ATF5; [13] | ATF5; [14] | ATF5; [15] | JUNB; [10] | JUNB; [11] | JUNB; [12] | JUNB; [13] | JUNB; [14] | JUNB; [15] | NFIL3; [1] | NFIL3; [2] | NFIL3; [3] | NFIL3; [4] | NFIL3; [5] | NFIL3; [6] | NFIL3; [7] | NFIL3; [8] | NFIL3; [9] | CREB3; [10] | CREB3; [11] | CREB3; [12] | CREB3; [13] | CREB3; [14] | CREB3; [15] | BACH1; [1] | BACH1; [2] | BACH1; [4] | BACH1; [5] | BACH1; [6] | BACH1; [7] | BACH1; [8] | BACH1; [9] | BACH2; [1] | BACH2; [2] | BACH2; [3] | BACH2; [4] | BACH2; [5] | BACH2; [6] | BACH2; [7] | BACH2; [8] | BACH2; [9] | ATF6; [4] | ATF6; [6] | ATF6; [7] | ATF6; [9] | MAF; [1] | MAF; [2] | MAF; [3] | MAF; [4] | MAF; [5] | MAF; [6] | MAF; [7] | MAF; [8] | MAF; [9] | NFE2L1; [1] | NFE2L1; [2] | NFE2L1; [3] | NFE2L1; [4] | NFE2L1; [5] | NFE2L1; [6] | NFE2L1; [7] | NFE2L1; [8] | NFE2L1; [9] | MAFB; [1] | MAFB; [3] | MAFB; [4] | MAFB; [6] | MAFB; [7] | MAFB; [9]
> 5000 nM: BACH1; [3] | ATF6; [1] | ATF6; [8] | ATF6; 37°C, C-terminal rhodamine design, repeat 1 | ATF6; 37°C, C-terminal rhodamine design, repeat 2 | ATF6; 37°C, C-terminal rhodamine design, repeat 3 | MAFB; [2] | MAFB; [5] | MAFB; [8]
